# From patent US8394990B2, “Phenylurea inhibitors of the enzyme SOAT-1 and pharmaceutical/cosmetic compositions comprised thereof” (Galderma Research & Development, priority 2007, dated 2013)
# Target: T1, enzyme ACAT-1 (Homo sapiens, UniProt P35610)
# T1 construct: endogenous in cells; host or cells: HepG2
# T1 sequence (P35610 1-550): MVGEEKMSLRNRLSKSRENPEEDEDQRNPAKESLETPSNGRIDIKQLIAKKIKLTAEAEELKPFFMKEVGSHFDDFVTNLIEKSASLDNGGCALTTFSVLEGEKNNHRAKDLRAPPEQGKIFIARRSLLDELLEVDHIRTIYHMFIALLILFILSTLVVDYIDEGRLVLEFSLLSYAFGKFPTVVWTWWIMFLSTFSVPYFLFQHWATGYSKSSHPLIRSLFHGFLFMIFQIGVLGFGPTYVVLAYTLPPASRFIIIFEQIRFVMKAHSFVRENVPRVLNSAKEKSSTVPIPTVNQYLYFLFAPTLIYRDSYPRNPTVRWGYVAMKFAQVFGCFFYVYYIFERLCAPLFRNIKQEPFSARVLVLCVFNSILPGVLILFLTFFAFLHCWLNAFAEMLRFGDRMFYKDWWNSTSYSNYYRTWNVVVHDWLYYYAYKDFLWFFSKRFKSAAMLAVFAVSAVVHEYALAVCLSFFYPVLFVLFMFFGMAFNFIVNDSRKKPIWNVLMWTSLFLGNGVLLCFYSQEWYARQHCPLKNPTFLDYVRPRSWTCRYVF
# Assay: NBD-cholesterol fluorescence test in HepG2 cells for inhibitory activity towards ACAT-1 (SOAT-1)
# Type: cell-based
# Conditions: NBD-cholesterol 1 μg/ml, incubation 6 hrs at 37° C., fluorescence excitation 490 nm, emission 540 nm
# Method: The compounds (I) according to the invention, and the pharmaceutically acceptable salts, solvates and/or hydrates thereof, have inhibitory properties towards the enzyme SOAT-1. This inhibitory action on the enzyme SOAT-1 is measured according to a primary enzymatic test HepG2, as described below.
# The compounds of formula (I) according to the invention were subjected to a test making it possible to evaluate their inhibitory activity towards the enzyme ACAT-1 inspired by the following publication: “Identification of ACAT1- and ACAT2-specific inhibitors using a novel, cell based fluorescence assay: individual ACAT uniqueness” J. lipid. Res (2004) vol 45, pages 378-386. The principle of this test is based on the use of NBD-cholesterol, an analogue of cholesterol whose fluorescence depends on its environment. When it is in a polar environment, it is weakly fluorescent, whereas in a non-polar environment it is strongly fluorescent. […]
# The following method is applied: the HepG2 cells are incubated in the presence of NBD-cholesterol (1 μg/ml) and of the compound of formula (I) to be tested in transparent-bottomed black 96-well plates at a level of 30000 cells per well. […] After addition of 50 μl of lysis buffer (10 mM NaPO4, 1% lgepal), the plates are shaken for 5 mins and read in fluorescence (excitation 490 nm, emission 540 nm) on a FUSION instrument (Perkin Elmer).
row,SMILES,IC50
1,"CC(C)c1cccc(C(C)C)c1NC(=O)NCC1(Nc2ccccc2I)CCCC1 [I.2, 1-(2,6-diisopropylphenyl)-3-[1-(2-iodophenylamino)-cyclopentylmethyl)-urea]",24.1 nM
2,"CC(C)c1cccc(C(C)C)c1NC(=O)NCC1(Nc2ccccc2-c2ccccc2)CCCC1 [I.4, 1-[1-(biphenyl-2-ylamino)-cyclopentylmethyl]-3-(2,6-diisopropylphenyl)-urea]",9.5 nM
